# Results: publication PMC10525132, “Potent Antioxidant and Anti-Tyrosinase Activity of Butein and Homobutein Probed by Molecular Kinetic and Mechanistic Studies” (Antioxidants, 2023)
# Where two headings read alike, the source gives them in different places.
# Assays:
# mTYR = mTYR (Agaricus bisporus, UniProt C7FF04); assay: Stability toward air and mTYR, decay of concentration by UV-Vis; conditions: air-saturated PBS pH 6.8, 30 °C, 7 U/ml mTYR, 0.05 and 0.1 mM
# [1] = biological target: T1, mushroom tyrosinase (mTYR) (Agaricus bisporus, UniProt C7FF04); assay: Inhibition of mushroom tyrosinase diphenolase reaction (substrate L-dopa, dopachrome at 475 nm); type: biochemical; conditions: for Vmax^app / IC50: 30 °C; for Vmax^app: pH 6.8, L-dopa; for IC50: IC50 Diphenolase; for Ki: KI Competitive; for inhibition mode, diphenolase: from M-M and Lineweaver–Burk plots
# T1 construct: purchased Sigma-Aldrich (Milan, Italy)
# T1 sequence (C7FF04 1-392): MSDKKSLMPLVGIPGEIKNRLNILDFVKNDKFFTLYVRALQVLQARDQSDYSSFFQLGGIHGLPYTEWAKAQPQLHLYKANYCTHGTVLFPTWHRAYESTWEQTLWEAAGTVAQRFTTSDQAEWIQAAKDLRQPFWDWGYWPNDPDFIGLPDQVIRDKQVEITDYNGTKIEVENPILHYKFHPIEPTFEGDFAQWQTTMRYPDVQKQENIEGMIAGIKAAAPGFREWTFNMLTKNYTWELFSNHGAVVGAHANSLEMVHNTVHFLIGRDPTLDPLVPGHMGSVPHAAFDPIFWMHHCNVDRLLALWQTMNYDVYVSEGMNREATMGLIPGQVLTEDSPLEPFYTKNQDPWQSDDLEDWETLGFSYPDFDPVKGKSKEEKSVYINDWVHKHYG
# Procedure: (§1) Measurements were performed at 30 °C in phosphate buffer (50 mM, pH 6.8) in polystyrene low-volume cuvettes (1.5 mL, l = 1 cm) with a double-beam spectrophotometer. […] The reaction was monitored at 475 nm for up to 60 min, following dopachrome formation. Initial velocity (V = ΔA/Δmin) was converted in μM/min according to Lambert–Beer law using the molar extinction coefficient ε = 3700 M^−1cm^−1 for dopachrome at λmax = 475 nm. Michaelis–Menten parameters (Km e Vmax) were obtained by processing initial velocity vs. substrate concentration data by non-linear fitting to M-M Equation (4), using Sigmaplot 11.0 (Systat Software Inc., San Jose, CA, USA). Linearized Lineweaver–Burk Equation (5) was used to identify the inhibition mode. In both equations, V indicates the measured initial rate of reaction, [S] is the initial substrate concentration, while Vmax and Km are, respectively, the maximum reaction rate (at saturating substrate concentration) and the M-M constant, with the substrate concentration yielding half-maximum rate.
# (10) KI=[I]/α−1 and KI′=[I]/α^′−1 where (11) α=(Kmapp × α^′)/Km and α^′=Vmax/Vmaxapp
# (§2) Determination of M-M inhibition constants KI and KI′, along with assignment of the inhibition mode, is the most reliable method to accurately quantify the potency of enzyme inhibitors, as it is independent of the experimental settings, like substrate and enzyme concentrations.
# [2] = biological target: T1, mushroom tyrosinase (mTYR); assay: Inhibition of mushroom tyrosinase monophenolase reaction (substrate L-tyrosine, dopachrome at 475 nm); type: biochemical; conditions: for Vmax^app / IC50: 30 °C; for Vmax^app: pH 6.8, L-tyrosine; for IC50: IC50 Monophenolase; for Ki: KI Competitive; for Ki / KI′ Uncompetitive / KI′ Calc. from Km / KI′ Calc. from Vmax: monophenolase; for inhibition mode, monophenolase: from M-M and Lineweaver–Burk plots
# Procedure: as §1, §2
# [3] = biological target: T1, mushroom tyrosinase (mTYR); conditions: previous report, cited from earlier work
# [4] = biological target: T1, mushroom tyrosinase (mTYR); conditions: cited from earlier work
# [5] = diphenolase, average over inhibitor concentrations
# [6] = diphenolase, inhibitor 0.175 µM
# [7] = average over inhibitor concentrations
# Sequence of mTYR (C7FF04 1-392): as above
compound,measurement,setting,value
"COc1cc(/C=C/C(=O)c2ccc(O)cc2O)ccc1O [Homobutein, (E)-1-(2,4-dihydroxyphenyl)-3-(4-hydroxy-3-methoxyphenyl)prop-2-en-1-one]",behaviour as substrate of mTYR,mTYR,not a significant substrate
same,Vmax^app,[1]; inhibitor 0.175 µM,11.48 ± 0.22 µM/min
same,Vmax^app,[1]; inhibitor 0.70 µM,11.30 ± 0.88 µM/min
same,Vmax^app,[1]; inhibitor 1.4 µM,11.10 ± 0.21 µM/min
same,Vmax^app,[1]; inhibitor 5.6 µM,10.84 ± 0.26 µM/min
same,IC50,"[1]; pH 6.8, L-dopa 0.05 mM",3.04 ± 0.84 µM
same,IC50,"[1]; pH 6.8, L-dopa 0.125 mM",3.83 ± 0.94 µM
same,IC50,"[1]; pH 6.8, L-dopa 0.25 mM",5.6 ± 1.07 µM
same,IC50,"[1]; pH 6.8, L-dopa 0.50 mM",7.57 ± 1.11 µM
same,IC50,"[1]; pH 6.8, L-dopa 1.00 mM",12.4 ± 2 µM
same,Ki,[1]; [5],2500 ± 1560 nM
same,Ki,[1]; [6],1280 nM
same,Ki,"[1]; diphenolase, inhibitor 0.70 µM",1540 nM
same,Ki,"[1]; diphenolase, inhibitor 1.4 µM",2460 nM
same,Ki,"[1]; diphenolase, inhibitor 5.6 µM",4720 nM
same,lowest concentration with clear inhibition detectable,[1]; diphenolase,175 nM
same,KI′ Uncompetitive,[1]; [5],38.24 ± 27.81 µM
same,KI′ Uncompetitive,[1]; [6],16.75 µM
same,KI′ Uncompetitive,"[1]; diphenolase, inhibitor 0.70 µM",26.38 µM
same,KI′ Uncompetitive,"[1]; diphenolase, inhibitor 1.4 µM",30.83 µM
same,KI′ Uncompetitive,"[1]; diphenolase, inhibitor 5.6 µM",79.01 µM
same,"inhibition mode, diphenolase",[1],nearly competitive
same,Vmax^app,[2]; inhibitor 1.4 µM,3.83 ± 0.04 µM/min
same,Vmax^app,[2]; inhibitor 2.8 µM,3.78 ± 0.05 µM/min
same,Vmax^app,[2]; inhibitor 5.6 µM,3.63 ± 0.06 µM/min
same,Vmax^app,[2]; inhibitor 11.2 µM,3.15 ± 0.03 µM/min
same,IC50,"[2]; pH 6.8, L-tyrosine 0.05 mM",4.01 ± 0.66 µM
same,IC50,"[2]; pH 6.8, L-tyrosine 0.125 mM",4.58 ± 0.88 µM
same,IC50,"[2]; pH 6.8, L-tyrosine 0.25 mM",6.06 ± 0.95 µM
same,IC50,"[2]; pH 6.8, L-tyrosine 0.50 mM",8.75 ± 1.18 µM
same,IC50,"[2]; pH 6.8, L-tyrosine 1.00 mM",14.8 ± 1.05 µM
same,Ki,[2]; [7],2760 ± 700 nM
same,Ki,[2]; inhibitor 1.4 µM,2190 nM
same,Ki,[2]; inhibitor 2.8 µM,2240 nM
same,Ki,[2]; inhibitor 5.6 µM,2940 nM
same,Ki,[2]; inhibitor 11.2 µM,3670 nM
same,"inhibition mode, monophenolase",[2],nearly competitive
same,KI′ Uncompetitive,"[2]; mixed-type treatment, average",140.53 ± 94.57 µM
same,KI′ Uncompetitive,"[2]; mixed-type treatment, inhibitor 1.4 µM",268.10 µM
same,KI′ Uncompetitive,"[2]; mixed-type treatment, inhibitor 2.8 µM",151.20 µM
same,KI′ Uncompetitive,"[2]; mixed-type treatment, inhibitor 5.6 µM",92.40 µM
same,KI′ Uncompetitive,"[2]; mixed-type treatment, inhibitor 11.2 µM",50.40 µM
"O=C(/C=C/c1ccc(O)c(O)c1)c1ccc(O)cc1O [Butein, (E)-1-(2,4-dihydroxyphenyl)-3-(3,4-dihydroxyphenyl)prop-2-en-1-one]",behaviour as substrate of mTYR,mTYR,not a significant substrate
same,Vmax^app,[1]; inhibitor 1.4 µM,10.93 ± 0.22 µM/min
same,Vmax^app,[1]; inhibitor 2.8 µM,10.60 ± 0.88 µM/min
same,Vmax^app,[1]; inhibitor 5.6 µM,8.17 ± 0.21 µM/min
same,Vmax^app,[1]; inhibitor 11.2 µM,7.42 ± 0.26 µM/min
same,IC50,"[1]; pH 6.8, L-dopa 0.05 mM",3.76 ± 0.96 µM
same,IC50,"[1]; pH 6.8, L-dopa 0.125 mM",4.12 ± 1.39 µM
same,IC50,"[1]; pH 6.8, L-dopa 0.25 mM",5.38 ± 0.9 µM
same,IC50,"[1]; pH 6.8, L-dopa 0.50 mM",9.31 ± 0.85 µM
same,IC50,"[1]; pH 6.8, L-dopa 1.00 mM",15.2 ± 1.25 µM
same,Ki,[1]; [5],3300 ± 750 nM
same,Ki,"[1]; diphenolase, inhibitor 1.4 µM",3210 nM
same,Ki,"[1]; diphenolase, inhibitor 2.8 µM",2590 nM
same,Ki,"[1]; diphenolase, inhibitor 5.6 µM",3070 nM
same,Ki,"[1]; diphenolase, inhibitor 11.2 µM",4350 nM
same,KI (competitive) lower than KI′ (uncompetitive),[1]; diphenolase,about 5 fold
same,KI′ Uncompetitive,[1]; [5],18.75 ± 5.15 µM
same,KI′ Uncompetitive,"[1]; diphenolase, inhibitor 1.4 µM",18.04 µM
same,KI′ Uncompetitive,"[1]; diphenolase, inhibitor 2.8 µM",25.24 µM
same,KI′ Uncompetitive,"[1]; diphenolase, inhibitor 5.6 µM",12.68 µM
same,KI′ Uncompetitive,"[1]; diphenolase, inhibitor 11.2 µM",19.05 µM
same,"inhibition mode, diphenolase",[1],mixed-type
same,Vmax^app,[2]; inhibitor 1.4 µM,3.24 ± 0.07 µM/min
same,Vmax^app,[2]; inhibitor 2.8 µM,3.02 ± 0.05 µM/min
same,Vmax^app,[2]; inhibitor 5.6 µM,2.21 ± 0.04 µM/min
same,Vmax^app,[2]; inhibitor 11.2 µM,1.95 ± 0.07 µM/min
same,IC50,"[2]; pH 6.8, L-tyrosine 0.05 mM",45.1 ± 18.3 µM
same,IC50,"[2]; pH 6.8, L-tyrosine 0.125 mM",35.6 ± 28.4 µM
same,IC50,"[2]; pH 6.8, L-tyrosine 0.25 mM",12.9 ± 3.22 µM
same,IC50,"[2]; pH 6.8, L-tyrosine 0.50 mM",12.3 ± 2.52 µM
same,IC50,"[2]; pH 6.8, L-tyrosine 1.00 mM",10.9 ± 2.19 µM
same,"inhibition mode, monophenolase",[2],uncompetitive
same,"inhibition mode, monophenolase",[2]; listed as BU,reversible uncompetitive
same,KI′ Calc. from Km,[2]; [7],10.74 ± 3.36 µM
same,KI′ Calc. from Vmax,[2]; [7],9.17 ± 2.01 µM
same,KI′ Uncompetitive,[2]; averaged over both calculation methods,9.95 µM
same,KI′ Uncompetitive,"[2]; averaged over both calculation methods, listed as BU",9.95 ± 2.69 µM
same,KI′ Calc. from Km,[2]; inhibitor 1.4 µM,7.47 µM
same,KI′ Calc. from Vmax,[2]; inhibitor 1.4 µM,7.44 µM
same,KI′ Calc. from Km,[2]; inhibitor 2.8 µM,10.50 µM
same,KI′ Calc. from Vmax,[2]; inhibitor 2.8 µM,10.19 µM
same,KI′ Calc. from Km,[2]; inhibitor 5.6 µM,9.60 µM
same,KI′ Calc. from Vmax,[2]; inhibitor 5.6 µM,7.55 µM
same,KI′ Calc. from Km,[2]; inhibitor 11.2 µM,15.40 µM
same,KI′ Calc. from Vmax,[2]; inhibitor 11.2 µM,11.49 µM
same,Ki,"[3]; monophenolase, competitive",1.41 mM
same,"inhibition mode, monophenolase",[3],competitive
same,effect toward diphenolase reaction (reported),[4],ineffective
same,diphenolase inhibition (reported effect),[4]; even at concentrations > 100 µM,poorly effective
